From article PMC8532147, “Dual Stimuli-Responsive Dynamic Covalent Peptide Tags: Toward Sequence-Controlled Release in Tumor-like Microenvironments” (Journal of the American Chemical Society, 2021)
Bridge positions count the residues as written; N and C are the ends. Square brackets hold non-standard residues; d marks the D form. Peptide text beside a SMILES is read from it. I, II: the chains in the order shown. Phe(4-B(OH)2) = N[C@@H](Cc1ccc(B(O)O)cc1)C(=O)O; Dopa = N[C@@H](Cc1ccc(O)c(O)c1)C(=O)O

Tests used:
in vitro [1] = type: in vitro ADME; conditions: calf (bovine), cells or culture medium
Description: Next, the stability of 2Ox in glucose containing solutions were tested since it is known that phenyl boronic acids interact with sugars.[11]2Ox was incubated in glucose solution (1 g/mL) or […] DMEM cell media (1 g/mL), which was used in the subsequent cell studies. The analysis was performed for up to 3 days and quantitative analysis was obtained using single ion monitoring (SIM) of m/z of 2Ox (m/z = 664, 388) in LC-ESI-MS to improve sensitivity in detection (SI, Figure S20). Fmoc-Phe-OH was used as an internal standard. […] The amount of 2Ox decreased by around 20% in low glucose DMEM cell culture media after a day of incubation (SI, Figure S20). The decrease is presumably due to the disulfide exchange with free thiols inside the media (10% FCS and cysteine according to manufacturer’s specifications). Nevertheless, 2Ox is sufficiently stable to potential thiol exchange for subsequent biological studies.
(§1) The UV (280 nm) signals were integrated and normalized against the Fmoc-Phe standard as well as the SIM for 664 against the SIM of 388. The relative area was then plotted against the incubation time.
(§2) Figure S 20: Stability of 2Ox in glucose solution (GS) and low glucose cell media (LGM) detected by UV -Vis and ESI-MS. […]
(§3) expected due to free thiols in the media (FCS and cysteine).
(§4) 11. Stability in cytosol under oxidative/reductive conditions
(§5) Stability in liver cytosol […]

in vitro [2] = type: in vitro ADME; conditions: s9 or cytosol
Description: Such differences in the physiological concentration of GSH have been exploited for controlled release. Thus, the GSH-induced cleavage of 1 mM of 2Ox was probed by incubation in commercially available liver cytosols spiked with physiologically relevant concentrations of GSH:GSSG (1:0.025 and 10:0.25 mM). The analysis was performed for up to 60 min and quantitative analysis was obtained using SIM in LC-MS (2Ox, m/z = 1328, 664) with Fmoc-Phe-OH as an internal standard (SI, Figure S22). […] On the other hand, at a concentration of 10 mM (molar ratio 10:1) the reaction was slightly slower due to longer equilibration time. […] Therefore, although the oxidized complex is stable over a longer period in serum (Figure 6a), GSH release could be induced in cytosolic conditions in cancer cells (Figure 6b), which would be important for controlled release as a drug delivery system.
as §1, §2, §3, §4, §5

[3] = Stability under oxidative conditions (0.1% hydrogen peroxide); type: physicochemical; conditions: LC-MS SIM
Description: We further determined the stability of the hybridized sequences under oxidative conditions. The oxidized complex, 2Ox was incubated with 0.1% hydrogen peroxide ([…]). Aliquots were analyzed via LC-MS over different time intervals up to 60 min (SI, Figure S23) using SIM detection. Besides monitoring the decrease in the m/z of 2Ox, SIM also offers the possibility to identify degradation products and allowed us to map the chemical processes involved in the oxidative condition implemented. […] We observed complete conversion to compound 3 (Figure 6c,d). […]
12. Fluorescence quenching assay
Four stock solutions were prepared: 5 mM OSCSO, 2 μM DL488 -BSCSB in a phosphate buffer (100 mM, pH = 6.0, 2.5 mM TCEP) and 5 mM OSCSO, 2 µM DL488-BSCSB in a phosphate buffer (100 mM, pH = 7.4, 2.5 mM TCEP). […] FQA was measured immediately.
The procedure was repeated 3 times both for pH 6.0 and 7.4. Each point on the graph represents mean average of normalized fluorescence for one concentration from the series and error bars represent standard […]
The NMR spectra were recorded on a Bruker AVANCE III 850 MHz spectrometer with a 5 mm triple resonance TXI 1H/13C/15N probe equipped wit h a z-gradient. All spectra were measured at 298 K. The spectra were analyzed using Bruker TopSpin 3.6.1. […]

For `NC(=O)[C@H](Cc1ccc(B(O)O)cc1)NC(=O)[C@H](CO)NC(=O)[C@H](CSSC[C@H](NC(=O)[C@H](CO)NC(=O)[C@@H](N)Cc1ccc(O)c(O)c1)C(=O)N[C@@H](CO)C(=O)N[C@@H](Cc1ccc(O)c(O)c1)C(N)=O)NC(=O)[C@H](CO)NC(=O)[C@@H](N)Cc1ccc(B(O)O)cc1` [2Ox] (I: H-[Phe(4-B(OH)2)]SCS[Phe(4-B(OH)2)]-NH2 / II: H-[Dopa]SCS[Dopa]-NH2; disulfide I:3-II:3), the metabolised at 24 h (in vitro [1]) was ~20%, the remaining at 10 min, 1 mM (in vitro [2]) was 80% and the starting material left ([3]; 1 mM in ammonium bicarbonate with 0.1% hydrogen peroxide (30 μM), after 10 min) was “no starting material is left”. The “dissociation into the single peptide sequences” value ([3]; 0.1% hydrogen peroxide (30 μM), up to 60 min) was “did not dissociate”.
